According to PMC6021034, “Novel FFA1 (GPR40) agonists containing spirocyclic periphery: polar azine periphery as a driver of potency” (Journal of Enzyme Inhibition and Medicinal Chemistry, 2016):
Where two headings read alike, the source gives them in different places.

Legend:
human GPR40 = human GPR40 (Homo sapiens, UniProt O14842); experiment: Calcium flux (FLIPR, Fluo-8) agonist assay in CHO cells stably expressing human GPR40; format: cell-based; conditions: for % FFA1 activation at 5 μM: relative to GPR40 activation by 20 μM of GW9509, n = 2
Chain of human GPR40 (O14842 whole entry): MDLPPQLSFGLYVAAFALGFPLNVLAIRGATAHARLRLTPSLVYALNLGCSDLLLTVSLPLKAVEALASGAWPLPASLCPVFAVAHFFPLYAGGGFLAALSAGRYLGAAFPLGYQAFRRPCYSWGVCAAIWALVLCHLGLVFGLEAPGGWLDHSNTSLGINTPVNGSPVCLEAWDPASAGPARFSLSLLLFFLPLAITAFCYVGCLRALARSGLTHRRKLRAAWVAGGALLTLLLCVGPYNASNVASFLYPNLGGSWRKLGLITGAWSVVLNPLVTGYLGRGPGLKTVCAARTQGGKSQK
Protocol: Determination of agonistic activity of compounds against FFA1 (GPR40) receptor
CHO cells stably expressing human GPR40 (stable CHO-GPR40 line created at Enamine Ltd., Kyiv, Ukraine) were seeded (12 500 cells/well) into 384-well black-wall, clear-bottom microtiter plates 24 h prior to assay. Cells were loaded for 1 h with fluorescent calcium dye (Fluo-8 Calcium Assay kit, Abcam, ab112129, Cambridge, UK) and tested using fluorometric imaging plate reader (FLIPR Tetra® High Throughput Cellular Screening System, Molecular Devices Corp., Sunnyvale, CA). Maximum change in fluorescence over base line was used to determine agonist response. A potent and selective agonist for FFA1 (GPR40) GW9508 (Selleckchem, S8014) was tested with the test compounds as a positive control. Concentration response curve data were fitted using Molecular Devices ScreenWorks® System Control Software (Molecular Devices). The half-maximal effective concentration was determined from these curves plotted in “% FFA1 activation − log[drug]” coordinates and % maximum efficacy was related to that of the reference compounds GW9508.

FFA1 [1] = conditions: cited from earlier work
FFA1 [2] = tested on: FFA1; set-up: method as in PMID 24900210; conditions: cited from earlier work
[3] = dose-response (% FFA1 activation) mode, read-out: EC50

In the case of `Cl.Cl.O=C(O)CCc1ccc(OCc2ccc(CN3CCC4(CC3)CC(Oc3ccccn3)CCO4)cc2)cc1` (stereo not shown) [Compound 4c, 3-{4-[(4-{[4-(Pyridin-2-yloxy)-1-oxa-9-azaspiro[5.5]undec-9-yl]methyl}benzyl)oxy]phenyl}propanoic acid dihydrochloride], the “% FFA1 activation at 5 μM” value (human GPR40) is reported as 61.4%, the Emax (human GPR40; CHO, maximum efficacy relative to GPR40 activation by 20 μM of GW9509, n = 2) is reported as 61% and the EC50 (human GPR40; Table 2, compounds investigated in this work, read-out: FFA1 EC50) is reported as 0.9 µM.
For `Cl.Cl.O=C(O)CCc1ccc(OCc2ccc(CN3CCC4(CC3)CC(Oc3ncccn3)CCO4)cc2)cc1` (stereo not shown) [Compound 4b, 3-{4-[(4-{[4-(Pyrimidin-2-yloxy)-1-oxa-9-azaspiro[5.5]undec-9-yl]methyl}benzyl)oxy]phenyl} propanoic aciddihydrochloride], the “% FFA1 activation at 5 μM” value (human GPR40) was 80.0%, the EC50 (human GPR40; [3]) was 1.62 µM and the “% Efficacy” value (human GPR40; maximum efficacy relative to GPR40 activation by 20 μM of GW9509, n = 2) was 80%.
In the case of `O=C(O)CCc1ccc(OCc2ccc(CN3CCC4(CCCCO4)CC3)cc2)cc1` [Compound 7], the EC50 (FFA1 [1]; reported earlier) is given as > 20 µM and the “FFA1 agonist activity (in words)” value (FFA1 [1]; tested earlier) is given as “inactive”.
For `Cl.Cl.O=C(O)CCc1ccc(OCc2ccc(CN3CCC4(CC3)CC(Oc3ccncc3)CCO4)cc2)cc1` (stereo not shown) [Compound 4d, 3-{4-[(4-{[4-(Pyridin-4-yloxy)-1-oxa-9-azaspiro[5.5]undec-9-yl]methyl}benzyl)oxy]phenyl}propanoic acid dihydrochloride], the “% FFA1 activation at 5 μM” value (human GPR40) was 13.6% and the EC50 (human GPR40; [3]) was > 20 µM.
For “3-{4-[(4-{[4-(Pyrazin-2-yloxy)-1-oxa-9-azaspiro[5.5]undec-9-yl]methyl}benzyl)oxy]phenyl}propanoic acid dihydrochloride [Compound 4a]”, the “% FFA1 activation at 5 μM” value (human GPR40) was 32.5%.
With `CNC(=O)CC1CCOC2(CCN(Cc3ccc(COc4ccc(CCC(=O)O)cc4)cc3)CC2)C1.Cl` (stereo not shown) [Compound 4g, 3-(4-{[4-({4-[2-(Methylamino)-2-oxoethyl]-1-oxa-9-azaspiro[5.5]undec-9-yl}methyl)benzyl]oxy}phenyl)propanoic acid hydrochloride] the “% FFA1 activation at 5 μM” value (human GPR40) was 9.9% and the EC50 (human GPR40; [3]) was > 20 µM.
For `Cl.Cl.O=C(O)CCc1ccc(OCc2ccc(CN3CCC4(CC3)CC(N3CCOCC3)CCO4)cc2)cc1` (stereo not shown) [Compound 4f, 3-[4-({4-[(4-Morpholin-4-yl-1-oxa-9-azaspiro[5.5]undec-9-yl)methyl]benzyl}oxy)phenyl]propanoic acid dihydrochloride], the “% FFA1 activation at 5 μM” value (human GPR40) was 10.2% and the EC50 (human GPR40; [3]) was > 20 µM.
With `Cl.Cl.O=C(O)CCc1ccc(OCc2ccc(CN3CCC4(CC3)CC(N3CCCC3)CCO4)cc2)cc1` (stereo not shown) [Compound 4e, 3-[4-({4-[(4-Pyrrolidin-1-yl-1-oxa-9-azaspiro[5.5]undec-9-yl)methyl]benzyl}oxy)phenyl]propanoic acid dihydrochloride] the “% FFA1 activation at 5 μM” value (human GPR40) was 9.1% and the EC50 (human GPR40; [3]) was > 20 µM.
In the case of `Cc1cc(OCCCS(C)(=O)=O)cc(C)c1-c1cccc(COc2ccc3c(c2)OC[C@H]3CC(=O)O)c1` [TAK-875, fasiglifam], the EC50 (FFA1 [2]) is given as 0.014 µM.
With `Cl.Cl.O=C(O)CCc1ccc(OCc2ccc(CN3CCC4(CC3)CC(CC(=O)NCc3ccncc3)CCO4)cc2)cc1` (stereo not shown) [Compound 4h, 3-[4-({4-[(4-{2-Oxo-2-[(pyridin-4-ylmethyl)amino]ethyl}-1-oxa-9-azaspiro[5.5]undec-9-yl)methyl]benzyl}oxy)phenyl]propanoic acid dihydrochloride] the “% FFA1 activation at 5 μM” value (human GPR40) was 10.0% and the EC50 (human GPR40; [3]) was > 20 µM.
With `Cl.Cl.O=C(O)CCc1ccc(OCc2ccc(CN3CCC4(CC3)CC(CC(=O)NCc3cccnc3)CCO4)cc2)cc1` (stereo not shown) [Compound 4i, 3-[4-({4-[(4-{2-Oxo-2-[(pyridin-3-ylmethyl)amino]ethyl}-1-oxa-9-azaspiro[5.5]undec-9-yl)methyl]benzyl}oxy)phenyl]propanoic acid dihydrochloride] the “% FFA1 activation at 5 μM” value (human GPR40) was 11.6% and the EC50 (human GPR40; [3]) was > 20 µM.
